According to US20130259829A1, “CLIP INHIBITORS AND METHODS OF MODULATING IMMUNE FUNCTION” (The Regents of the University of Colorado, A Body Corporate, priority 2008, published 2013):
No end group written: not given here. *: point of attachment. Biotin = O=C1N[C@H]2[C@H](CS[C@H]2CCCCC(=O)*)N1

Assays:
[1] = tested on: human B cells from peripheral blood mononuclear cells (PBMC); assay: Human PBMC culture with toll ligands with or without peptides, CLIP on B cells; type: cell-based; conditions: for level of CLIP per B cell / percentage of CLIP+ B cells: PBMC of two donors cultured with R848 for 48 hours
Description: PBMC were prepared from a total of seven adult normal donors, five for examining the effects of TLR binding on the percentage of ectopic CLIP^+ B cells and changes in mean fluorescence intensity of the CLIP staining resulting from TLR stimulation with CpG-ODN, LPS, Pam-3-Cys, and Poly I:C. For these experiments, the cells were cultured at approximately 1×10^6 per ml with each TLR binding ligand added at 5 μg per ml. The other two donors were tissue typed for HLA phenotypes, were cultured with the TLR7/8 agonist CL097 for 48 hours with and without the computationally predicted competitive peptide or the scrambled analogue for 48 hours. For both experiments at the end of the appropriate culture period, cells were harvested and stained for cell surface CLIP using anti-human CLIP-FITC versus MHC class II HLA-DR-PE Cy5, or anti-human CLIP-FITC versus anti-human CD19-PE. Cells were analyzed using either a BD FacsCalibur, for the five samples, or a Coulter FC500 for the two tissue typed samples.
(§1) Multi-parameter flow cytometric analysis for the fluorescent detection of ectopic CLIP, mouse B220, human CD19 or CD20, human CLIP, human HLA-DR, and human CLIP or apoptosis were performed using a Beckman Coulter Excel or a Beckman Coulter FC500 flow cytometer (Beckman Coulter, Hialeah, Fla.). Mouse splenic cells were cultured in complete RPMI for the times indicated. Resting, primed, or activated B cells were cultured in the presence of T cells (vide supra). At the end of 16 h of culture, the cells were harvested and washed. Ethidium bromide (detected by red fluorescence) was added immediately before analysis of each tube. The cells were analyzed by first gating using forward vs. side scatter then using increased fluorescence as a measure of detection of the indicated cell surface antigens.
Because CLIP affinity for MHC class II molecules is allele dependent, the MHCPred (http://www.jenner.ac.uk/MHCPred/) and NetMHC (http://www.cbs.dtu.dk/services/NetMHC/) databases was used to determine binding affinities between CLIP for molecules encoded by either mouse or human MHC alleles. […] For human studies, PBMC were collected from donors, most of whose MHC tissue types (alleles for HLA-DR, DP, DQ, HLA-A, and HLA-B) were identified. The cells were cultured in the presence or absence of the TLR7/8-binding compound R848 (CLO97, Invivogen) for 48 hours. The cells were cultured in the presence or absence of VGV-hB peptide versus a control peptide of equal length (referred to henceforth as VGV-pB, whose binding depends upon the MHC allele/polymorphism of the individual) (FIGS. 13d and 13e). […] Considering polymorphic differences in MHC alleles between the two individuals, the ability of a given peptide to replace CLIP may vary as a function of the polymorphism between the two people. Data are representative of five different experiments performed over several months.

B6.129 (H-2b) mice [2] = assay: CpG-ODN injected B6.129 mice with or without peptide (TLR-induced chronic hyperimmune activation); type: in vivo, mouse
Description: C57Bl6 and B6.129 mice were injected with CpG-oligo-deoxynucleotide (CpG-ODN (25 μg per mouse)). After 24, 72, or 96 hours, animals were humanely killed; spleens and lymph nodes were removed. The spleens and lymph nodes were passed through nylon mesh to recover single cell suspensions, and the cells were counted. Cells were stained as indicated and analyzed flow cytometrically using a Beckman Coulter Excel or Coulter FC500 flow cytometer.
as §1
Cell death was measured either by flow cytometric detection of forward versus side scatter or by DNA fragmentation. DNA fragmentation was quantified by terminal deoxynucleotidyl transferase (TdT; Promega, Madison, Wis.)-mediated fluorescein-12-deoxyuridine triphosphate (FITC-dUTP; Boehinger Mannheim Corporation, Indianapolis, Ind.) addition to the terminal 3′-OH ends of fragmented DNA (TUNEL assay) as previously described (18). Resting B cells (1×10^6) were combined with 1×10^5 T hybridoma cells, with or without antigen, and cultured for 16-17 h. The cultures were harvested and washed twice in PBS-2% FBS at 4° C. Subsequently, cells were incubated for 30 min at 4° C. in PBS-2% FBS […] Cells were washed in PBS and fixed in 1.5% paraformaldehyde in PBS (pH 7.4) for 1 h at 4° C. Cells were thoroughly washed in PBS and were resuspended in 50 μl of a reaction mixture containing the following: 5 units TdT, 0.1-0.2 nM FITC-dUTP and 1 nM each dATP, dCTP, and dGTP in 100 mM cacodylate buffer (pH 6.8) with 1 mM CoCl2 and 0.1 mg/ml BSA. Reactions were incubated for 1 h at 37° C. and stopped by washing with 0.25 M EDTA in Tris buffer (pH 7.4). Cells were then analyzed for two color fluorescence on the FC500.
Using mouse models for quantitative analysis of TLR-induced CHA, B6.129 (H-2^b) mice were injected with CpG-ODN alone or CpG-ODN in combination with VGV-hB. […] Because the binding constant of a peptide is also function of concentration, B6.129 mice were injected with peptide; either VGV-hB or VGV-sB, ranging in dose from 0.25, 2.5, 25, and 50 micrograms of peptide per mouse, (FIGS. 14c and 14d).

B6.129 (H-2b) mice [3] = assay: as above; type: in vivo, mouse; conditions: CpG-ODN alone or with peptide, 48 hours
[4] = background statement; cited from earlier work
[5] = tested on: human B cell lines, Raji and Daudi; assay: Synthetic peptide binding and competition with CLIP on B cell lines (anti-human CLIP Fitc versus Streptavidin); type: cell-based; conditions: for cell surface bound CLIP (Fitc-Anti-CLIP): biotinylated competing peptide, 50 microMolar
From the text: Based on a computational model comparing the peptide content of TNP mixture and identifying those peptides that would have the likeliest ability to compete for the peptide/antigen binding site for MHC class II (human HLA-DR, DP, and DQ), several peptide candidates were synthesized and examined for activity. The purpose of the study was to determine if synthetic peptides can compete for binding with CLIP peptides as measured with either Fitc anti-human CLIP antibody or, comparatively in the case of biotinylated peptides, with Streptavidin.
Cell Culture Conditions: The Raji and Daudi cell lines were purchased from American Type Culture Collection, were thawed, and grown in RPMI 1640 medium supplemented with standard supplements, including 10% fetal calf serum, gentamycin, penicillin, streptomycin, sodium pyruvate, HEPES buffer, 1-glutamine, and 2-ME.
Protocol: Cells were plated into a 12 well plate with 3 mls total volume containing approximately 1.5×10^6/well for Daudi cells and 3.0×10^6/well for Raji cells. Treatment groups included no treatment as control; MKN 3 and MKN 5 at 50 microMolar final concentration based on the reported molarity of the synthesized compounds.
The cells were incubated at 37° C. in an atmosphere containing 5% CO2 and approximately 92% humidity. The cells were incubated for 4 and 24 hours. At each time point, the cells from that experimental time were harvested and stained for flow cytometric analysis of cell surface expression of CLIP (MHC Class II invariant peptide, human) by using the commercially available (Becton/Dickinson/PHarmingen) anti-human CLIP Fitc. Catalogue #555981 versus Streptavidin.
Harvested cells were stained using standard staining procedure that called for a 1:100 dilution of Fitc-anti-human CLIP or isotype control versus 1:200 dilution of the commercially prepared Streptavidin. Following staining on ice for 25 minutes, cells were washed with PBS/FCS and resuspended in 100 microliters and added to staining tubes containing 400 microliters of PBS. Samples were acquired and analyzed on a Coulter Excel Flow Cytometer.
In the Histogram analyses of FIGS. 5-7 the Y axis represents cell number of the 5000 live cells versus the X axis which is a reflection of relative Fitc fluorescence versus Streptavidin-PE (eBioscience, Cat. #12-4317) that will bind with high affinity to cell-bound biotinylated peptides. The distance between the histogram from the isotype control staining versus the histogram reflecting the specific stain and is a measure of level of cell surface CLIP or the biotinylated peptide when stained with Streptavidin on a population of live Raji or Daudi cells as indicated.

mouse splenic B cells = assay: TLR activation of mouse splenocytes in vitro, ectopic CLIP on B cells (15G4-FITC versus B220); type: cell-based; conditions: for exogenous CLIP expression on activated mouse B cells: treatment in vitro with toll ligand
From the text: Mouse splenocytes or T-depleted splenocytes were red cell depleted using Geys Solution, and cells were counted. For T-depleted B cell preparations, B cells were separated by discontinuous Percoll (Pharmacia LKB Biotechnology, Piscataway, N.J.) gradients (13). Those cells layering at the 1.079/1.085 g/ml interface (1.079<ρ≦1.085) are designated throughout as resting B cells. Cells layering at the BSS/1.066 g/ml interface (ρ≦1.066) are designated as activated. Viable cells from this latter interface were isolated using Lympholyte-M (Cedarlane Laboratories, Ltd., Hornby, Ontario, Canada). Cells from each layer were harvested, washed, and resuspended at 10^7 cells/ml in PBS containing 5% fetal calf serum.
Total splenocytes, from either B6.129, Ii-deficient, or H2M-deficient mice were cultured with LPS for 24, 48, 72, or 96 hours as indicated. Cells were harvested and stained by two-color fluorescence using 15G4-FITC anti-mouse CLIP/I-A^6 versus anti-mouse B220 PE.
Freshly isolated splenocytes, single cell suspensions of lymph node cells, resting (or activated) B cells, or primed B cells were isolated from B6.129, Ii-deficient, or H2M-deficient mice and cultured in 24 well plates in complete RPMI medium, with or without the appropriate Toll ligand, at 10^6 cells/ml. Cells were cultured for 24, 48, 72, 96, or up to 144 hours. Cells were harvested and stained by flow cytometric analysis using either a Beckman Coulter Excel or a Beckman Coulter FC500 flow cytometer. Cells were stained by two-color fluorescence using 15G4-FITC anti-mouse CLIP/I-A^b versus anti-mouse B220 PE. For co-culture experiments (5×10^5) were combined with T cells (5×10^4) in 24 well plates in complete medium, with or without the appropriate antigen. Experiments with 3A9, 2A11 or A6.A2 employed 3 mg/ml tryptic digest of HEL as a source of pre-processed antigen, i.e., peptide. Cultures were incubated overnight at 37° C. in a humidified 5% CO2, 95% air incubator.
as §1

B cell surface CLIP = B cell surface CLIP after 2-Deoxyglucose and dichloroacetate (FIG. 4); type: cell-based
[6] = peptide in combination with TLR 9 stimulation (CpG-ODN)

FRIMAVLAS [VGV-hB]
level of CLIP per B cell [1]: reduced the percentage of CLIP^+ B cells and the level of CLIP per B cell to pre-treatment levels | percentage of CLIP+ B cells [1]: reduced the percentage of CLIP^+ B cells and the level of CLIP per B cell to pre-treatment levels | reversal of CpG-ODN activation incl. percent of CLIP+ B cells from total spleen (peptide titration) (B6.129 (H-2b) mice [2]; 0.25, 2.5, 25, and 50 micrograms of peptide per mouse): reversed the effecs of CpG-ODN activation | CD4+ FoxP3+ Tregs in the lymph nodes (B6.129 (H-2b) mice [2]; CpG-ODN injection in vivo, without or with peptide): reversible | effect of CpG-ODN on total cell numbers, absolute numbers of B cells, and CLIP+ B cell distribution between spleen and lymph node (B6.129 (H-2b) mice [2]; CpG-ODN with peptide, 24, 72, 96 hours): reduced | CD8+ T cells (B6.129 (H-2b) mice [2]; CpG-ODN with peptide, interpretation in discussion): promotes expansion | B cell death (B6.129 (H-2b) mice [2]; [6]): increased B cell death | number of live CD4+ T cells (B6.129 (H-2b) mice [2]; [6]): moderate increase | splenic B lymphocytes and splenic CLIP+ B cells (B6.129 (H-2b) mice [3]): reversed the effects of CPG alone

C=CC[C@@H]1/C=C(\C)C[C@H](C)C[C@H](OC)[C@H]2O[C@@](O)(C(=O)C(=O)N3CCCC[C@H]3C(=O)O[C@H](/C(C)=C/[C@@H]3CC[C@@H](O)[C@H](OC)C3)[C@H](C)[C@@H](O)CC1=O)[C@H](C)C[C@@H]2OC [FK506, tacrolimus]
immunosuppressive activity relative to cyclosporin [4]: 10-100 times

SGGGSKMRMATPLLMQALY (Biotin-SGGGSKMRMATPLLMQALY) [MKN.1]
cell surface CLIP and CD74 levels ([5]; Raji or Daudi cells): alters cell surface CLIP and CD74 levels

polyinosinic:polycytidylic acid [Poly I:C]
exogenous CLIP expression on activated mouse B cells (mouse splenic B cells): resulted in exogenous CLIP expression

lipopolysaccharide [LPS]
exogenous CLIP associated with MHC class II on splenic B cells (mouse splenic B cells; in vitro stimulation of resting mouse splenocytes, 0 to 72 hours): time-dependent increase | exogenous CLIP expression on activated mouse B cells (mouse splenic B cells): resulted in exogenous CLIP expression | ectopic CLIP on human B cells ([1]; PBMC from five healthy donors, toll ligand 5 ug per ml, 24 hours): Statistically significant increases

FRIMAVLASSGGGANSGFRIMAVLASGGQY [MKN.3]
cell surface bound CLIP (Fitc-Anti-CLIP) ([5]; 4 hours): small decreases | cell surface bound CLIP (Fitc-Anti-CLIP) ([5]; 24 hours): significant decreases

ANSGIIGDITEEVGGQY [VGV-pB]
level of CLIP per B cell [1]: reduced the frequency of CLIP^+ B cells and the level of CLIP per cell in one individual but not the other | percentage of CLIP+ B cells [1]: reduced the frequency of CLIP^+ B cells and the level of CLIP per cell in one individual but not the other

(S)-(2,3-bis(palmitoyloxy)-(2RS)-propyl)-N-palmitoyl-(R)-Cys-(S)-Ser(S)-Lys4-OH, trihydrochloride [Pam3Cys]
exogenous CLIP expression on activated mouse B cells (mouse splenic B cells): resulted in exogenous CLIP expression

SGGGKALVQNDTLLQVKG (not fully specified (N-terminus); also: biotinylated, position not given here) [MKN.5]
cell surface bound CLIP (Fitc-Anti-CLIP) ([5]; 4 hours): small decreases | cell surface bound CLIP (Fitc-Anti-CLIP) ([5]; 24 hours): significant decreases

CCOCc1nc2c(N)nc3ccccc3c2n1CC(C)(C)O [R848, imidazoquinoline resiquimod]
exogenous CLIP expression on activated mouse B cells (mouse splenic B cells): resulted in exogenous CLIP expression

O=CC[C@@H](O)[C@H](O)[C@H](O)CO [2-Deoxyglucose]
B cell surface CLIP (B cell surface CLIP): affects B cell surface CLIP
